Assay results published in patent US6001810A, “Methods for treating retroviral infection” (Eli Lilly and Company, priority 1990, dated 1999).
In brackets after ≈: the same amount, converted by molar mass. Non-standard residues stand in square brackets, D forms with d. Residues, ends and D or L forms follow the SMILES beside them. *: point of attachment. Phe(4-NH2) = Nc1ccc(C[C@H](N)C(=O)O)cc1; Sta = CC(C)C[C@H](N)[C@@H](O)CC(=O)O; Isovaleryl = CC(C)CC(=O)*

Tests used:
HIV-1 protease = biological target: T1, HIV-1 protease (Human immunodeficiency virus type 1 group M subtype B, UniProt P04585); experiment: HIV-1 protease inhibition assay (gag precursor maturation, Western blot); assay type: biochemical
T1 construct: a gene encoding the mature HIV-1 protease of 99 amino acids; last 58 codons of bovine growth hormone, fused behind the first 144 amino acids of reverse transcriptase in the expressed precursor (C); made in house; host or cells: Escherichia coli K12 L507/pHP10D (NRRL B-18560), crude lysate
Experimental: A 100 μl control reaction was established containing 10 to 20 μl of crude protease, about 2 μl of the gag supernatant and final concentrations of 50 mM MES Buffer (pH 5.5), 1 mM DTT and 25 mM NaCl. Inhibition assays were performed by pre-incubating the crude protease with an inhibitory compound at room temperature for about 30 minutes before adding the gag supernatant to the reaction. Both the control and the experimental reactions were incubated from three to sixteen hours at 37° C. The reactions were then electrophoresed and blotted onto nitrocellulose filters. Monoclonal antibodies which recognize epitopes on p24 and p17 viral proteins were contacted with the filter then visualized using standard biotinylation or radionuclear techniques. Compounds which prevented the maturation of the gag polypeptide into mature viral proteins p24 and p17 were then ranked according to their HIV-1 protease inhibitory activity.
About 10 to 20 μl of the crude protease lysate was mixed with about 2 μl of the gag supernatant. The mixture was then brought to a total volume of 100 μl by the addition of distilled water, MES buffer (2-[N-Morpholino]ethanesulfonic acid) (pH 5.5 to a total concentration of 50 mM), DTT (dithiolthreitol) (to a total concentration of 1 mM) and NaCl (to a total concentration of 25 mM). This reaction mixture was mixed gently then incubated from 3 hours to overnight at 37° C.
Next, about 25 μl of the reaction was mixed with loading buffer and subjected to polyacrylamide gel electrophoresis on a 12.5% Laemmli gel under reducing conditions. The proteins were transferred onto a nitrocellulose filter using standard "Western Blot" electrophoresis at 500 mAmps for 35 minutes at room temperature. The filter was air-dried, then non-specific immunoreaction was blocked by washing the filter for 30 minutes at 4° C. in a solution of 3% non-fat dry milk powder in phosphate buffered saline (PBS).
Monoclonal antibodies against p17 and/or p24 (available from DuPont, Wilmington, Del.) were added to about 40 ml of the 3% milk/PBS solution to a final concentration of 2 μg/ml. […] The filter then was removed and washed 5 times with PBS, then the maturation of the gag gene was determined by reaction with I^125 -labeled protein A or by reaction with biotinylated anti-mouse IgG antibodies (Vecta Stain®). […]
Following the procedure, it is simple to determine the activity of the HIV-1 protease encoded on plasmid pHP10D and produced in E. coli cells. When the protease is fully active, the gag protein, encoded by plasmid pHGAG and produced in E. coli, is cleaved from the precursor gag form into mature p24 and p17 proteins, which are readily measured by their presence relative to the precursor protein. […]

CEM cells = assay type: cell-based
Experimental: (§1) Quantitative evaluation of the viral inhibition were performed on the T-cell lymphoblastoid cell lines MT-2 (Harada et al., 1985, Science 229:563-566) and CEM (Nara and Fischinger, 1988, Nature 332:469-470). The cells were infected with the HTLV-IIIB strain of HIV-1 from the supernatant fluid of infected human T-lymphocyte cell line H9 (Popovic, M. et al., 1984, Science 224:497-500). Each of these three cell lines are publicly available from the National Institutes of Health (NIH) AIDS Research and Reference Reagent Program. The H9/HTLC-IIIB cell line is available under catalogue number 231, while CEM cell line is available under catalogue number 117 and the MT-2 cell line is available under the catalogue number 237. MT-2 and CEM cells were grown in RPMI 1640 medium supplemented with 10% (v/v) fetal calf serum, 100 U/ml penicillin, 100 μg/ml streptomycin and 25 mM HEPEs buffer. H9 cells were grown in the same medium except 20% fetal calf serum was used. The peptides were diluted in the medium used for MT-2 and CEM cells. Cell cultures were maintained in disposable tissue culture labware at 37° C. in a humidified atmosphere of 5% CO2 in air.
(§2) The inhibitors were dissolved in DMSO at 40 mg/ml or sterile water at 2 mg/ml, then dilutions were made in medium. The dilutions were added to micro-titer plates in 100 μl/well aliquots so that the high drug concentration for each screen was 100 μg/ml after the addition of cells to the well.
(§3) Susceptible MT-2 and CEM cells were grown and the cell population determined by a trypan blue viable cell count. The desired total number of cells were placed in a sterile, disposable 50 ml conical centrifuge tube and virus was added to give an MOI (Multiplicity of Infection) of 0.03 TCID50 /cell (Tissue Culture Infectious Dose) on MT-2 cells and approximately 0.12 TCID50 /cell on CEM cells. Fresh medium was added to adjust the cell density to 1×10^5 cells/ml, then the virus-cell suspension was incubated at 37° C. for 1 to 2 hours until plating. Uninfected controls cell were prepared in the same manner but without the addition of virus. Infected and uninfected cells were added to plates in 100 μl/well aliquots to give a starting cell number of 1×10^4 cells/well. The plates were incubated for seven days in a humidified atmosphere of 5% CO2 in air.
Reagents for colorimetric evaluation of cell viability were prepared by mixing the tetrazolium reagent, XTT, and phenazine methosulfate (PMS) to final concentrations of 200 μg/ml and 0.02 mM, respectively. Fifty microliters of the XTT-PMS solution was added to each well of the microtiter plates, then the plates were incubated in the CO2 incubator for another four hours. The lids were removed from the plates and replaced with adhesive plate sealers. The plates were read with the sealers in place in a Vmax Plate Reader® at 450 nm and 650 nm. The cytopathic effect (CPE) and percentage of cell viability were then calculated.
The activity and cytotoxicity of several other peptides were also assayed in CEM cells using the same procedure as described above. These assays also included toxicity and activity levels of both 25% and 50%.

MT-2 cells = assay type: cell-based
Experimental: as §1, §2, §3
Reagents for colorimetric evaluation of cell viability were prepared by mixing the tetrazolium reagent, XTT, and phenazine methosulfate (PMS) to final concentrations of 200 μg/ml and 0.02 mM, respectively. […] The plates were read with the sealers in place in a Vmax Plate Reader® at 450 nm and 650 nm. The cytopathic effect (CPE) and percentage of cell viability were then calculated.

Mo-MuLV = experiment: Moloney Murine Leukemia Virus Assay, CPE inhibition in SC-1/XC cells; assay type: cell-based; parameters: key: 4+(>90%); 3+(>60%); 2+(>40%); 1+(>20%); -(Negative)
Experimental: (§4) About 3 to 5×10^3 SC-1 cells (available from the American Type Culture Collection, Rockville, Md. under the accession number ATCC CRL-1404) per well of a 96-well microtiter plate were seeded in minimal essential medium supplemented with 5% fetal bovine serum, penicillin (150 U/ml), Streptomycin (150 μg/ml) and polybrene (2 μg/ml), then infected with Mo-MuLV (Multiplicity of Infection=10 PFU/cell) the next day. The virus was allowed to adsorb to the cells for 1 hour, then medium containing serial dilutions of P-7, P-9 or medium alone was added to the cells. Pepstatin A ([…]-Val-Val-Statine-Ala-Statine) and AZT (3'-Azido-3'-deoxythymidine) were also added as controls. After incubation for 5 days (when cells were confluent) the SC-1 cells were UV irradiated for 10 seconds and 5 to 8×10^4 XC cells (ATCC CCL-165) per well were added. Generally, about two additional days of incubation were required to obtain full virus-induced cytopathic effect.

MLV = MLV XC Plaque Reduction Assay - Virus Yield; assay type: cell-based, Murine Leukemia Virus
Experimental: as §4
The assay described above was also preferred to determine the virus yield. In this experiment, the supernatents were removed from the SC-1 cells four days after infection and tested for MLV titers, using the XC-plaque assay as previously described.

With `CC(=O)N[C@H](C(=O)N[C@@H](CC(C)C)[C@@H](O)CC(=O)N[C@@H](CC(C)C)C(=O)N[C@@H](Cc1ccccc1)C(N)=O)C(C)C` [Ac-Val-Statine-Leu-Phe--NH2] (Ac-V[Sta]LF-NH2) the “Inhibitory activity against the HIV protease (in words)” value (HIV-1 protease) was “inactive”.
For `CC(C)C[C@H](NC(=O)C[C@H](O)[C@H](CC(C)C)NC(=O)[C@@H](NC(=O)[C@H](Cc1ccccc1)NC(=O)[C@@H]1CCCN1C(=O)[C@H](Cc1ccc(N)cc1)NC(=O)[C@@H]1CCCN1)C(C)C)C(=O)N[C@@H](Cc1ccccc1)C(=O)N[C@@H](Cc1ccc(N)cc1)C(N)=O` [P-1, H-Pro paF Pro Phe Val Statine Leu Phe paF NH2] (H-P[Phe(4-NH2)]PFV[Sta]LF[Phe(4-NH2)]-NH2), the “MTC50 (minimum cytotoxic drug concentration that reduces cell viability to 50%)” value (CEM cells) was over 100 µg/mL and the “MTC50 (minimum cytotoxic drug concentration that reduces cell viability to 50%)” value (MT-2 cells) was over 100 µg/mL.
For `CC(=O)N[C@@H](Cc1ccc(O)cc1)C(=O)N1CCC[C@H]1C(=O)N[C@@H](Cc1ccccc1)C(=O)N[C@H](C(=O)N[C@@H](CC(C)C)[C@@H](O)CC(=O)N[C@@H](CC(C)C)C(=O)N[C@@H](Cc1ccccc1)C(N)=O)C(C)C` [P-5, Ac Tyr Pro Phe Val Statine Leu Phe NH2] (Ac-YPFV[Sta]LF-NH2), the “IC25 (Table V)” value (CEM cells) was over 100 µg/mL and the “TC50 (concentration that reduced cell viability by 50%)” value (CEM cells) was over 100 µg/mL.
For `CC(=O)N[C@@H](Cc1c[nH]c2ccccc12)C(=O)N1CCC[C@H]1C(=O)N[C@@H](Cc1ccccc1)C(=O)N[C@H](C(=O)N[C@@H](CC(C)C)[C@@H](O)CC(=O)N[C@@H](CC(C)C)C(=O)N[C@@H](Cc1ccccc1)C(N)=O)C(C)C` [P-8, Ac Trp Pro Phe Val Statine Leu Phe NH2] (Ac-WPFV[Sta]LF-NH2), the “IC25 (Table V)” value (CEM cells) was 49 µg/mL (≈ 48.7 µM) and the “TC50 (concentration that reduced cell viability by 50%)” value (CEM cells) was 66 µg/mL (≈ 65.6 µM).
With `COc1ccc(C[C@H](NC(C)=O)C(=O)N2CCC[C@H]2C(=O)N[C@@H](Cc2ccccc2)C(=O)N[C@H](C(=O)N[C@@H](CC(C)C)[C@@H](O)CC(=O)N[C@@H](CC(C)C)C(=O)N[C@@H](Cc2ccccc2)C(N)=O)C(C)C)cc1` [P-9, Ac YOM Pro Phe Val Statine Leu Phe NH2] (Ac-Y(Me)PFV[Sta]LF-NH2) the “IC25 (Table V)” value (CEM cells) was over 100 µg/mL and the “TC50 (concentration that reduced cell viability by 50%)” value (CEM cells) was over 100 µg/mL.
In the case of `CC(=O)N[C@@H](Cc1ccccc1)C(=O)N1CCC[C@H]1C(=O)N[C@@H](Cc1ccccc1)C(=O)N[C@H](C(=O)N[C@@H](CC(C)C)[C@@H](O)CC(=O)N[C@@H](CC(C)C)C(=O)N[C@@H](Cc1ccccc1)C(N)=O)C(C)C` [P-10, Ac Phe Pro Phe Val Statine Leu Phe NH2] (Ac-FPFV[Sta]LF-NH2), the “IC25 (Table V)” value (CEM cells) is reported as 49 µg/mL (≈ 50.7 µM) and the “TC50 (concentration that reduced cell viability by 50%)” value (CEM cells) is reported as 55 µg/mL (≈ 56.9 µM).
`CC(C)CC(=O)N[C@H](C(=O)N[C@H](C(=O)N[C@@H](CC(C)C)[C@@H](O)CC(=O)N[C@@H](C)C(=O)N[C@@H](CC(C)C)[C@@H](O)CC(=O)O)C(C)C)C(C)C` [Pepstatin A, Isovaline-Val-Val-Statine-Ala-Statine] (Isovaleryl-VV[Sta]A[Sta]-OH) was tested, and the CPE inhibition score (Mo-MuLV; 1.56 μg/ml) was “-”, the CPE inhibition score (Mo-MuLV; 3.12 μg/ml) was “-” and the CPE inhibition score (Mo-MuLV; 6.25 μg/ml) was “-”. The CPE inhibition score (Mo-MuLV; 12.5 μg/ml) was “-”, the CPE inhibition score (Mo-MuLV; 25 μg/ml) was “-” and the CPE inhibition score (Mo-MuLV; 50 μg/ml) was “-”. For the same compound, the “% Inhibition (virus yield)” value (MLV; 25 μg/ml) was 52%, the Yield (MLV; 25 μg/ml) was 9.0 × 10^4 PFU/ML and the “% Inhibition (virus yield)” value (MLV; 50 μg/ml) was 94%. For the same compound, the Yield (MLV; 50 μg/ml, supernatants four days after infection) was 1.2 × 10^4 PFU/ML.
With “H-Pro His Pro Phe His AVA Ile Phe NH2 [P-25]” the “Relative Inhibition of HIV-1 Protease Activity (10^-4 M)” value (HIV-1 protease; peptide concentration added 10^-4 M) was “-”, the “Relative Inhibition of HIV-1 Protease Activity (10^-5 M)” value (HIV-1 protease; peptide concentration added 10^-5 M) was “-” and the “Relative Inhibition of HIV-1 Protease Activity (10^-6 M)” value (HIV-1 protease; peptide concentration added 10^-6 M) was “-”.
